Here are results for six molecules from US6670366B1, “Pyrazolopyrimidinone cGMP PDE5 inhibitors for the treatment of sexual dysfunction” (Pfizer Inc, priority 1998, dated 2003).

Broadly, the IC50 is the point on the concentration scale where inhibition reaches its midpoint.

The assay deals with cGMP PDE5 (UniProt O76074). In words: In vitro PDE inhibitory activity against cGMP PDE5. The assay is classed as biochemical, human or rabbit. The settings on record: concentration of compound required for 50% inhibition of enzyme activity, read-out: IC50 as inhibitors of cGMP PDE5. On the procedure:
In vitro PDE inhibitory activities against cyclic guanosine 3′,5′-monophosphate (cGMP) and cyclic adenosine 3′,5′-monophosphate (cAMP) phosphodiesterases were determined by measurement of their IC50 values (the concentration of compound required for 50% inhibition of enzyme activity).
The required PDE enzymes were isolated from a variety of sources, including human corpus cavernosum, human and rabbit platelets, human cardiac ventricle, human skeletal muscle and bovine retina, essentially by the method of W. J. Thompson and M. M. Appleman (Biochem., 1971, 10, 311). In particular, the cGMP-specific PDE (PDE5) and the cGMP-inhibited cAMP PDE (PDE3) were obtained from human corpus cavernosum tissue, human platelets or rabbit platelets; the cGMP-stimulated PDE (PDE2) was obtained from human corpus cavernosum; the calcium/calmodulin (Ca/CAM)-dependent PDE (PDE1) from human cardiac ventricle; the cAMP-specific PDE (PDE4) from human skeletal muscle; and the photoreceptor PDE (PDE6) from bovine retina.
Assays were performed using modification of the “batch” method of W. J. Thompson et al. (Biochem., 1979, 18, 5228).
Regarding `CCCOc1ccc(S(=O)(=O)NC2CCN(C(=O)OCC)CC2)cc1-c1nc2c(CCC)n(Cc3ccccn3)nc2c(=O)[nH]1` [Example 10], the concentration for half-maximal inhibition (IC50) came out at 14 nM. Regarding `CCOc1ccc(S(=O)(=O)N2CCC(CC)CC2)cc1-c1nc2c(CC)n(Cc3ccccn3)nc2c(=O)[nH]1` [Example 4], the 50% inhibitory concentration (IC50) was 26.6 nM.

Take `CCCOc1ccc(S(=O)(=O)N2CC(O)C2)cc1-c1nc2c(CCC)n(Cc3ccccn3)nc2c(=O)[nH]1` [Example 8]: the IC50 was 16.4 nM.

`CCCc1c2nc(-c3cc(S(=O)(=O)N(C)C)cnc3OCC)[nH]c(=O)c2nn1Cc1ccccn1` [Example 19, 5-[5-(N,N-Dimethylaminosulfonyl)-2-ethoxypyridin-3-yl]-3-n-propyl-2-(pyridin-2-yl)methyl-2,6dihydro-7H-pyrazolo[4,3-d]pyrimidin-7-one]: the IC50 stood at 9.7 nM. In the case of `CCc1c2nc(-c3cc(S(=O)(=O)N4CCC(CC)CC4)cnc3OCCOC)[nH]c(=O)c2nn1Cc1ccccn1` [Example 22], the IC50 came to 10.3 nM. Next, `CCCOc1ncc(S(=O)(=O)NCCN(C)C)cc1-c1nc2c(CCC)n(Cc3ccccn3)nc2c(=O)[nH]1` [Example 20, 5-(5-[(3-N,N-Dimethylamino)-1-ethylaminosulfonyl]-2-n-propoxypyridin-3-yl)-3-n-propyl-2-(pyridin-2-yl)methyl-2,6-dihydro-7H-pyrazolo[4,3-d]pyrimidin-7-one]: 8.5 nM.
